Earlier results as cited in patent publication US20130122120A1, “INSECTICIDAL COMPOSITIONS AND METHODS” (priority 2011, published 2013).

Tests used:
aphids = conditions: nymphs and adults
[1] = applied directly to skin or consumed

## CCCCCCCCCCCCOS(=O)(=O)[O-].[Na+] [Sodium lauryl sulfate, Sodium dodecyl sulfate]
Bacterial mutation
  Ames (bacterial mutation) test result: negative
aphids
  efficacy against aphids: some limited efficacy for treating aphids, killing the nymphs, but merely delays death in adults
[1]
  carcinogenicity: not carcinogenic
At the CMC
  aggregation number: about 62
Pure water at 25° C.
  critical micelle concentration (CMC): 8.2 mM
